Experimental data reported in US10640748B2, “Oligodendroglial cell culturing methods and in methods for treating neurodegenerative disorders by using thyroid hormones or analogues” (NeuOrphan Pty Ltd, priority 2014, dated 2020).
“Also recorded” adds a separate entry of the source.

Columns and labels:
[1] = tested on: rat retinal ganglion cells (RGCs) and Nkx2.1-GFP+ sorted OPCs; test: Co-culture and myelination assay with rat RGC and hESC-derived OPCs; assay type: cell-based, rat; human
Source text: Retinae were dissected from P6 Sprague-Dawley rat pups (AEC #1121/2011/M). RGCs were purified according to the published immunopanning protocol (Deliyanti and Wilkinson-Berka, 2015; Watkins et al., 2008). Details of the RGC preparation are described in Supplemental Experimental Procedure. The RGC growth medium was changed every third day and cultures were maintained for 9 days. Pre-OLs from Nkx2.1-GFP+ cells at stage VI day 10, were FACS sorted according to O4 antibody labeling. O4+ sorted cells were then co-cultured with RGCs at a density of 20,000/well under 3 different conditions: T3 with 0.01% ethanol, 10 ng/mL DITPA, and 40 ng/mL T3 with DITPA in myelination medium (see Supplemental Experimental Procedure). The medium was changed every 3 days and all co-cultures were fixed after 7 days, followed by immunocytochemistry. Cells were stained with a monoclonal rat anti-mCherry (Life Technologies, M11217, 1:1,000); monoclonal mouse anti-NF-200 (Sigma-Aldrich, N0142, 1:200); and polyclonal rabbit anti-MBP (Millipore, AB980, 1:200). Followed by incubation of appropriate Alexa Fluor-labeled secondary antibodies (Life technologies).
In RGC-OPC co-cultures, myelin segments were counted manually. 10 fields (×20 objective) were randomly selected and captured from each coverslip with a confocal microscope (Nikon A1 inverted). For representative images, 10 z-stack images (0.25 μm intervals) were captured, analysed and processed for 3D volume rendering by Imaris version 7.6.4. OLs were scored according to their morphology and defined as either “resting” (processes not touching axons); “contacting” (processes touching axons but not wrapping); and “ensheathing” (processes aligned with and wrapping axons). A myelination index (i.e. axons myelinated) was calculated by: the number of MBP+ membrane, ensheathing the NF200+ axons/the total number of NF200+ axons.
The dissected retinae were digested using papain dissociation system according to the manufacturer's protocol (Worthington). […]

[2] = tested on: Pre-OLs from Nkx2.1-GFP+ sorted cultures at stage VI, day 21; test: MTT-based cytotoxicity assay under Bosutinib MCT8 blockade; assay type: cell-based, human; conditions: Bosutinib with 10 ng/mL DITPA, 48 hours
Description: Pre-OLs from Nkx2.1-GFP+ sorted cultures at stage VI, day 21 were treated with the pharmacological inhibitor of MCT8, bosutinib (LC Laboratories, B-1788, reconstituted in dimethyl sulfoxide, [DMSO]) at different concentrations (1 ng/mL, 10 ng/mL and 100 ng/mL) with co-administration of 10 ng/mL DITPA. An MTT assay and flow cytometry were then performed on the cells stained for DAPI after 48 hours of treatment, to analyze DAPI+ dead cells.

[3] = tested on: Nkx2.1-GFP sorted cells transduced with slc16a2 shRNA lentivirus; test: Apoptosis assay (cleaved caspase-3) after stable knockdown of slc16a2; assay type: cell-based; conditions: DITPA from 3 days post-LV-transduction
Description: Nkx2.1-GFP sorted cells at the end of stage VI or V were transduced with MOI of 10 in appropriate stage-specific medium containing polybrene (5 μg/mL, Sigma-Aldrich). Efficiency of transduction was validated by analyzing mCherry+ cells by flow cytometry and efficiency of knockdown was validated by analyzing the slc16a2 transcript level by qRT-PCR 72 hours post-transduction. An apoptosis assay was performed on cells either, treated with or without DITPA for 2 days from 72 hours post-transduction, then fixed. Cells were stained with monoclonal rat anti-mCherry (M11217, Life Technologies, 1:1,000), polyclonal rabbit anti-cleaved caspase-3 (9661, Cell Signaling Technology, 1:400) and DAPI (Life Technologies) then analyzed by confocal microscopy (Nikon A1 Inverted using a ×20 water objective lens). Apopotic OLs were defined as those mCherry-positive cells with cleaved caspase-3+ nuclei that were also condensed and fragmented as assessed by DAPI. The data were plotted as the number of cleaved caspase-3/mCherry+ cells divided by total number of mCherry+ cells.

[4] = tested on: rat RGCs and slc16a2 down-regulated OLs from Nkx2.1-GFP+ sorted cells; test: Co-culture myelination assay with slc16a2 down-regulated OLs; assay type: cell-based, rat; human; conditions: slc16a2 down-regulated OLs co-cultured with rat RGCs for 7 days
Source text: Retinae were dissected from P6 Sprague-Dawley rat pups (AEC #1121/2011/M). RGCs were purified according to the published immunopanning protocol (Deliyanti and Wilkinson-Berka, 2015; Watkins et al., 2008). Details of the RGC preparation are described in Supplemental Experimental Procedure. The RGC growth medium was changed every third day and cultures were maintained for 9 days. Pre-OLs from Nkx2.1-GFP+ cells at stage VI day 10, were FACS sorted according to O4 antibody labeling. O4+ sorted cells were then co-cultured with RGCs at a density of 20,000/well under 3 different conditions: T3 with 0.01% ethanol, 10 ng/mL DITPA, and 40 ng/mL T3 with DITPA in myelination medium (see Supplemental Experimental Procedure). […]
For quantification of myelination in vitro following knockdown of slc16a2, at least nine fields (×20 objective) were randomly selected and captured from each coverslip with a confocal microscope (Nikon A1 inverted). A myelination index (%) by mCherry+ cells (i.e. axons myelinated by mCherry+ cells) was calculated by: the number of mCherry+/MBP+ membrane, ensheathing the NF200+ axons/the total number of NF200+ axons. Furthermore, the viable ensheathing mCherry+/MBP+ OLs and mature mCherry+ OLs according to their morphology with multiple processes and membranous sheaths were counted and their % calculated.

slc16a2-/- zebrafish = conditions: cited from earlier work

O=C(O)CCc1cc(I)c(Oc2ccc(O)cc2)c(I)c1 [DITPA, 3,5-Diiodothyropropionic acid]
percentage of myelination (number of myelinated axons/total number of axons) ([1]; 7 days co-culture, 10 ng/mL DITPA, compared with T3 alone): significantly enhanced | contacting or ensheathing MBP+ OLs ([1]; 7 days co-culture, 10 ng/mL DITPA, versus T3 alone): more | myelination of rat retinal ganglion cells ([1]; FIG. 6): Depicts an experiment which shows that DITPA promotes the myelination of rat | survival rates (MTT assay) [2]: increased survival rates | cell death / apoptosis mediated by slc16a2 knock-down [3]: significantly reduced cell death; also recorded: Depicts an experiment which shows that DITPA rescues oligodendrocyte death | mCherry+/MBP+ myelinating OLs and mCherry+/MBP+ myelin segments [4]: found | locomotor behavioral outcomes (slc16a2-/- zebrafish): restored | myelin deficiencies (slc16a2-/- zebrafish): restored
